Measured values as given in patent US20060069132A1, “Azolecarboxamide herbicides” (priority 2004, published 2006).

Experiments:
lambsquarters = assay: Test C pre-/postemergence herbicide test; assay type: in vivo, Chenopodium album; details: preemergence
In short: (§1)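 Visual injury scores run from 0 (no effect) to 100 (complete control), assessed relative to untreated controls 12 to 14 days after treatment in the greenhouse. Chemicals were formulated in a non-phytotoxic solvent mixture with surfactant and applied to soil after planting or to emerged plants at the 1- to 4-leaf stage.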

rice = assay: Test C flooded paddy test; assay type: in vivo, Oryza sativa; details: for Plant response rating, Rice: 500 g ai/ha, visual rating after 12 to 14 days
In short: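 Postemergence sprays applied to plants 2 to 18 cm tall (1- to 4-leaf stage); paddy species grown to 2-leaf stage under flooding. After 12 to 14 days in greenhouse, visual rating versus untreated controls on 0–100 scale (0 no effect, 100 complete control).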

soybean = assay: Test C pre-/postemergence herbicide test; assay type: in vivo, Glycine max; details: preemergence; for Plant response rating (0 = no effect, 100 = complete control), Soybean: 125 g ai/ha
In short: as §1

yellow nutsedge = assay: Test C pre-/postemergence herbicide test; assay type: in vivo, Cyperus esculentus; details: preemergence
In short: as §1

[1] = system: common (oilseed) sunflower; assay: Test C pre-/postemergence herbicide test; assay type: in vivo, Helianthus annuus; details: preemergence; for Plant response rating (0 = no effect, 100 = complete control), Sunflower: 125 g ai/ha
In short: as §1

cocklebur = assay: Test C pre-/postemergence herbicide test; assay type: in vivo, Xanthium strumarium; details: preemergence
In short: as §1

common ragweed = assay: Test C pre-/postemergence herbicide test; assay type: in vivo, Ambrosia elatior; set-up: key to Plant response rating, Ragweed: 0 = no effect, 100 = complete control; details: preemergence; for Plant response rating (0 = no effect, 100 = complete control), Ragweed: 125 g ai/ha
In short: as §1

[2] = 500 g ai/ha, scale 0 to 100 (0 no effect, 100 complete control), visual, 12 to 14 days
[3] = 125 g ai/ha, scale 0 to 100 (0 no effect, 100 complete control)
[4] = 250 g ai/ha, scale of 0 to 100, 0 is no effect, 100 is complete control
[5] = scale 0 to 100 (0 no effect, 100 complete control)
[6] = 125 g ai/ha, scale 0 (no effect) to 100 (complete control), visual, 12 to 14 days

| SMILES | Plant response rating, Lambsquarters (lambsquarters; 62 g ai/ha, scale 0 to 100) | Plant response rating (0 = no effect, 100 = complete control), Lambsquarters (lambsquarters; 125 g ai/ha) | Plant response rating, Lambsquarters (lambsquarters; 250 g ai/ha, scale 0-100) | Plant response rating, Lambsquarters (lambsquarters; [2]) | Rice plant response rating (rice; 62 g ai/ha, scale 0 to 100) | Rice plant response rating (rice; [3]) | Rice plant response rating (rice; [4]) | Plant response rating, Rice (rice; [5]) | Plant response rating, Soybean (soybean; 62 g ai/ha, scale 0 to 100) | Plant response rating (0 = no effect, 100 = complete control), Soybean (soybean) | Plant response rating, Soybean (soybean; 250 g ai/ha, scale 0-100) | Plant response rating, Soybean (soybean; [2]) | Plant response rating, Nutsedge, Yellow (yellow nutsedge; 62 g ai/ha, scale 0 to 100) | Plant response rating (0 = no effect, 100 = complete control), Nutsedge, Yellow (yellow nutsedge; 125 g ai/ha) | Plant response rating, Nutsedge, Yellow (yellow nutsedge; 250 g ai/ha, scale 0-100) | Plant response rating, Sunflower ([1]; 62 g ai/ha, scale 0 to 100) | Plant response rating, Cocklebur (cocklebur; 62 g ai/ha, scale 0 to 100) | Plant response rating, Cocklebur (cocklebur; 250 g ai/ha, scale 0-100) | Plant response rating, Ragweed (common ragweed; 62 g ai/ha, scale 0 to 100) | Plant response rating, Ragweed (common ragweed; 250 g ai/ha, scale 0-100) | also measured |
| --- | --- | --- | --- | --- | --- | --- | --- | --- | --- | --- | --- | --- | --- | --- | --- | --- | --- | --- | --- | --- | --- |
| CCc1nn(C(C)(C)C)nc1C(=S)Nc1cccc(C(=S)N(C)C)c1 [Compound 396] | 100 | 100 | 100 | 100 | 60 | 70 | 75 | 80 | 0 | 75 | 100 | 100 | 0 | 25 | 45 | 0 | 0 | 0 | 0 | 80 | Plant response rating, Nutsedge, Yellow (yellow nutsedge; [2]): 80; Plant response rating (0 = no effect, 100 = complete control), Sunflower [1]: 0; Plant response rating, Sunflower ([1]; 250 g ai/ha, scale 0-100): 0; Plant response rating, Sunflower [1, 2]: 15; Plant response rating (0 = no effect, 100 = complete control), Cocklebur (cocklebur; 125 g ai/ha): 0; Plant response rating, Cocklebur (cocklebur; [2]): 0; Plant response rating (0 = no effect, 100 = complete control), Ragweed (common ragweed): 0; Plant response rating, Ragweed (common ragweed; [2]): 95 |
| CCc1nn(C(C)(C)C)nc1C(=O)Nc1cccc(C(=S)N(C)C)c1 [Compound 395] | 100 | 100 | 100 | 100 | 70 | 70 | 70 | 75 | 75 | 85 | 100 | 100 | 15 | 55 | 80 | 0 | 0 | 80 | 65 | 100 | Plant response rating, Nutsedge, Yellow (yellow nutsedge; [2]): 90; Plant response rating (0 = no effect, 100 = complete control), Sunflower [1]: 0; Plant response rating, Sunflower ([1]; 250 g ai/ha, scale 0-100): 50; Plant response rating, Sunflower [1, 2]: 55; Plant response rating (0 = no effect, 100 = complete control), Cocklebur (cocklebur; 125 g ai/ha): 15; Plant response rating, Cocklebur (cocklebur; [2]): 85; Plant response rating (0 = no effect, 100 = complete control), Ragweed (common ragweed): 95; Plant response rating, Ragweed (common ragweed; [2]): 100 |
| CCn1nc(C(C)(C)C)cc1C(=O)Nc1cc(C(=S)N(C)C)ccn1 [Compound 334] | 100 |  | 100 |  | 70 | 75 | 80 | 85 | 15 |  | 80 |  | 10 |  | 55 | 5 | 30 | 70 | 75 | 100 | Plant response rating, Lambsquarters (lambsquarters; [6]): 100; Plant response rating, Nutsedge, Yellow (yellow nutsedge; 31 g ai/ha, scale 0 to 100, last section of Table C): 5; Plant response rating, Nutsedge, Yellow (yellow nutsedge; [6]): 40; Plant response rating, Sunflower ([1]; 250 g ai/ha, scale 0-100): 55; Plant response rating, Cocklebur (cocklebur; [6]): 60 |
| CCNC(=O)c1cccc(NC(=O)c2nn(C(C)(C)C)nc2C)c1 [Compound 392] | 100 | 100 | 100 | 100 | 50 | 60 | 75 | 75 | 5 | 80 | 90 | 95 | 0 | 10 | 30 | 10 | 0 | 20 | 60 | 100 | Plant response rating, Nutsedge, Yellow (yellow nutsedge; [2]): 90; Plant response rating (0 = no effect, 100 = complete control), Sunflower [1]: 50; Plant response rating, Sunflower [1, 2]: 100; Plant response rating (0 = no effect, 100 = complete control), Cocklebur (cocklebur; 125 g ai/ha): 5; Plant response rating, Cocklebur (cocklebur; [2]): 80; Plant response rating (0 = no effect, 100 = complete control), Ragweed (common ragweed): 100; Plant response rating, Ragweed (common ragweed; [2]): 100 |
| CCC1=NN(C(C)(C)C)CC1C(=O)Nc1cc(C(=O)N(C)C)ccc1F (racemic) [Compound 343] | 100 | 100 | 100 | 100 | 20 | 50 | 70 | 80 | 40 | 80 | 100 | 100 | 5 | 10 | 60 | 10 | 30 | 80 | 70 | 90 | Plant response rating, Nutsedge, Yellow (yellow nutsedge; [2]): 90; Plant response rating (0 = no effect, 100 = complete control), Sunflower [1]: 75; Plant response rating, Sunflower ([1]; 250 g ai/ha, scale 0-100): 80; Plant response rating, Sunflower [1, 2]: 100; Plant response rating (0 = no effect, 100 = complete control), Cocklebur (cocklebur; 125 g ai/ha): 80; Plant response rating, Cocklebur (cocklebur; [2]): 100; Plant response rating (0 = no effect, 100 = complete control), Ragweed (common ragweed): 90; Plant response rating, Ragweed (common ragweed; [2]): 100 |
